# pIC50: −log10 of the molar value.
# Biological target: Sodium channel protein type 9 subunit alpha (Homo sapiens, UniProt Q15858)
# Test: EFS-FRET Assay: This screen is used to determine the effects of compounds on human Nav1.7 channels, utilizing electrical field stimulation (EFS) system in 96-well plate format on FDSS (Hamamatsu Photonics) platform. The changes of membrane potential are monitored with FRET dye pair, DiSBAC2(3) and PTS 18.
# Sequence of Sodium channel protein type 9 subunit alpha (Q15858 whole entry): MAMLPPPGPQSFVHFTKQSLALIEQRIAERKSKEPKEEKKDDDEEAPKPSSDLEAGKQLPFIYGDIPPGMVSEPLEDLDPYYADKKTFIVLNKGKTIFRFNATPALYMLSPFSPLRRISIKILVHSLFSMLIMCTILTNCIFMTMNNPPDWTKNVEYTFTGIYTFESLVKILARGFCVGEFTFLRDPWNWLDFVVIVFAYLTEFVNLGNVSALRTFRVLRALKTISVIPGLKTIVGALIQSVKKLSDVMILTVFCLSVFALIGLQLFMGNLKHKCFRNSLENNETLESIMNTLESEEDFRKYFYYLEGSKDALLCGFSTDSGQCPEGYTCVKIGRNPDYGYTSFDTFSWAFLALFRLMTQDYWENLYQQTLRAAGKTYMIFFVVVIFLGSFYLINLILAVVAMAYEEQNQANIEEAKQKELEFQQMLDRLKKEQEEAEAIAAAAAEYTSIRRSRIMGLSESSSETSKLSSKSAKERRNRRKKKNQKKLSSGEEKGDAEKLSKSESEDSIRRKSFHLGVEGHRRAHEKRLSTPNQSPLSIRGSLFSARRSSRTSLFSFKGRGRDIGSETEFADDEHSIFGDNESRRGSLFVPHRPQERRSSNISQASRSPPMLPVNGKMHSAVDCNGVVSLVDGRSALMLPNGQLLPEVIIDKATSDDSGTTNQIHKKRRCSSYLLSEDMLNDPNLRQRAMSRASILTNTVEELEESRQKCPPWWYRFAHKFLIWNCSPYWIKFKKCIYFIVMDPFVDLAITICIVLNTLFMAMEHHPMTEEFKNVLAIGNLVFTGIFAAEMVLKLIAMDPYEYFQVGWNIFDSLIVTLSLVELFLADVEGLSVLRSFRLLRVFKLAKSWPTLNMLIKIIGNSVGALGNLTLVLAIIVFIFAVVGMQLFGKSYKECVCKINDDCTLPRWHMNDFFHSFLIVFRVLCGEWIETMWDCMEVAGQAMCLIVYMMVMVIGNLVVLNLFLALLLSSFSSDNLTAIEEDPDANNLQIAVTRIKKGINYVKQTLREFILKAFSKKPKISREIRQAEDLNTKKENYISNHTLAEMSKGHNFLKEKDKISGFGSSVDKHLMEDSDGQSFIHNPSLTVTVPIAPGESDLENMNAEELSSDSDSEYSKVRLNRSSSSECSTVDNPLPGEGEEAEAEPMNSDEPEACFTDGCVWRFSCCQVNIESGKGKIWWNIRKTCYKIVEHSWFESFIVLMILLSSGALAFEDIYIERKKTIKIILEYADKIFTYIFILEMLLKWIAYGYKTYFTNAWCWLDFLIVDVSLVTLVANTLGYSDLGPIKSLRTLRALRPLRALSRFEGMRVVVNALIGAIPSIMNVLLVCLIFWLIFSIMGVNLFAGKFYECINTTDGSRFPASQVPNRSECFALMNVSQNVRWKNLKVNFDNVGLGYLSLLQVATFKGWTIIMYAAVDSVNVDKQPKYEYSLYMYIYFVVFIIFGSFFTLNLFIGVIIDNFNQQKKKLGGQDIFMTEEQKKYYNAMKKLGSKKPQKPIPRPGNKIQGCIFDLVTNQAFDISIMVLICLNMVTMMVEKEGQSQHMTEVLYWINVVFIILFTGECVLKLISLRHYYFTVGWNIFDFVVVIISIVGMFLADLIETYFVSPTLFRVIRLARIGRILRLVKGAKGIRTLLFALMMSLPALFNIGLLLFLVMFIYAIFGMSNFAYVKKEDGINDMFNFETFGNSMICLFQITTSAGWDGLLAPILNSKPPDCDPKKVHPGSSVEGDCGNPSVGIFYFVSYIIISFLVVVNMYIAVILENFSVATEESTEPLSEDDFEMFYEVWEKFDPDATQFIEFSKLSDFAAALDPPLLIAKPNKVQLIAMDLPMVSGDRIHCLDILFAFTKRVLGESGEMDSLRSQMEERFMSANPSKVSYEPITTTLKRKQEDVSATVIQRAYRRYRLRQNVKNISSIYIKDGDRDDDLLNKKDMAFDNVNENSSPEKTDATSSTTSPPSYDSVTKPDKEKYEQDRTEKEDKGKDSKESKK
row,SMILES,pIC50
1,CCOC(=O)N1CCC(COc2ccc(-c3cccc(OCc4ccc(C(=O)NS(C)(=O)=O)cc4)c3)cn2)CC1,> 6.30
2,CN(C)C(=O)COc1cc(OCC2CC2)cc(-c2cc(F)cc(OCc3ccc(C(=O)NS(C)(=O)=O)cc3F)c2)c1,> 6.30
3,CS(=O)(=O)NC(=O)c1ccc(COc2cccc(-c3ccc(OCC4CC4)nc3)n2)cc1,> 6.30
4,Cc1cc(OCC2CCC2)cnc1-c1cccc(OCc2ccc(C(=O)NS(C)(=O)=O)cc2F)c1,> 6.30
5,CC(C)(C)OC(=O)N1CCC(COc2ccc(-c3cccc(OCc4ccc(C(=O)NS(C)(=O)=O)cc4)c3)cn2)CC1,> 6.30
6,CS(=O)(=O)NC(=O)c1ccc(COc2cccc(-c3ccc(OCC4CCC4)nc3)c2)cc1,> 6.30
7,CS(=O)(=O)NC(=O)c1ccc(COc2ccc(F)c(-c3cccc(OCC4CC4)n3)c2)c(F)c1,> 6.30
8,CS(=O)(=O)NC(=O)c1ccc(COc2cccc(-c3cncc(OCC4CC4)c3)c2)c(F)c1,> 6.30
9,Cc1cc(OCC2CC2)ncc1-c1cccc(OCc2ccc(C(=O)NS(C)(=O)=O)cc2F)c1,> 6.30
10,Cc1cc(OCc2ccc(C(=O)NS(=O)(=O)C3CC3)cc2F)cc(-c2ccc(OCC3CC3)nc2)c1,> 6.30
11,CS(=O)(=O)NC(=O)c1ccc(COc2cccc(-c3cc(OCC4CC4)ccn3)c2)c(F)c1,> 6.30
12,CS(=O)(=O)NC(=O)c1ccc(COc2cc(F)cc(-c3cnc(OCC4CCC4)c(CO)c3)c2)c(F)c1,> 6.30
13,CN(CC1CC1)c1ncc(-c2cccc(OCc3ccc(C(=O)NS(C)(=O)=O)cc3F)c2)cn1,> 6.30
14,Cc1nc(OCC2CC2)ccc1-c1cccc(OCc2ccc(C(=O)NS(C)(=O)=O)cc2F)c1,> 6.30
15,Cc1c(-c2cccc(OCc3ccc(C(=O)NS(C)(=O)=O)cc3F)c2)ccnc1OCC1CC1,> 6.30
16,O=C(NS(=O)(=O)CC1CC1)c1ccc(COc2cc(F)cc(-c3ccc(OCC4CC4)nc3)c2)cc1,> 6.30
17,CS(=O)(=O)NC(=O)c1ccc(COc2cccc(-c3cccc(OCC4CC4)n3)c2)cc1,> 6.30
18,CC(C)S(=O)(=O)NC(=O)c1ccc(COc2cccc(-c3ccc(OCC4CC4)nc3)c2)c(F)c1,> 6.30

row,SMILES,pIC50
1,CS(=O)(=O)NC(=O)c1ccc(COc2cccc(-c3ccc(OCC4CC4)nc3)c2)c(Cl)c1,> 6.30
2,CS(=O)(=O)NC(=O)c1ccc(COc2cc(Br)cc(-c3ccc(OCC4CC4)nc3)c2)cc1,> 6.30
3,Cc1c(-c2cc(F)cc(OCc3ccc(C(=O)NS(C)(=O)=O)cc3)c2)ccnc1OCC1CC1,> 6.30
4,CS(=O)(=O)NC(=O)c1ccc(COc2cc(-c3ccccc3)cc(-c3ccc(OCC4CC4)nc3)c2)cc1,> 6.30
5,CS(=O)(=O)NC(=O)c1ccc(COc2cccc(-c3cnc(OCC4CC4)nc3)c2)c(F)c1,> 6.30
6,CS(=O)(=O)NC(=O)c1ccc(COc2cccc(-c3ccnc(OCC4CC4)c3)c2)cc1,> 6.30
7,Cc1nc(OCC2CC2)ncc1-c1cccc(OCc2ccc(C(=O)NS(C)(=O)=O)cc2F)c1,> 6.30
8,CS(=O)(=O)NC(=O)c1cc(OC(F)F)c(COc2cccc(-c3ccc(OCC4CC4)nc3)c2)cc1F,> 6.30
9,CS(=O)(=O)NC(=O)c1ccc(COc2cccc(-c3cncc(OCC4CC4)c3)c2)cc1,> 6.30
10,CS(=O)(=O)NC(=O)c1ccc(COc2ccc(F)c(-c3cnc(OCC4CC4)cn3)c2)c(F)c1,> 6.30
11,CS(=O)(=O)NC(=O)c1ccc(COc2cc(F)cc(-c3cnc(OCC4CCC4)c(CO)c3)c2)cc1,> 6.30
12,CS(=O)(=O)NC(=O)c1cc(F)c(COc2cc(F)cc(-c3ccc(OCC4CC4)nc3)c2)cc1F,> 6.30
13,CS(=O)(=O)NC(=O)c1ccc(COc2cc(Cl)cc(-c3ccc(OCC4CC4)nc3)c2)cc1,> 6.30
14,COC1CN(C(=O)c2cc(OCC3CC3)cc(-c3cc(F)cc(OCc4ccc(C(=O)NS(C)(=O)=O)cc4F)c3)c2)C1,> 6.30
15,CS(=O)(=O)NC(=O)c1ccc(COc2cc(C#N)cc(-c3ccc(OCC4CC4)nc3)c2)cc1,> 6.30
16,CS(=O)(=O)NC(=O)c1ccc(COc2cccc(-c3cnc(OCC4CCC4)cn3)c2)cc1,> 6.30
17,CS(=O)(=O)NC(=O)c1ccc(COc2cccc(-c3cnc(OCC4CCC4)cn3)c2)c(F)c1,> 6.30
18,CS(=O)(=O)NC(=O)c1ccc(COc2cccc(-c3cc(OCC4CC4)ccn3)c2)cc1,> 6.30

# Next, values leading:
row,pIC50,SMILES
1,> 6.30,CS(=O)(=O)NC(=O)c1ccc(COc2cc(F)cc(-c3ccc(OCC4CC4)cn3)c2)cc1
2,> 6.30,CS(=O)(=O)NC(=O)c1ccc(COc2cccc(-c3ccc(OCC4CC4)nc3)c2)c(C#N)c1
3,> 6.30,Cc1cc(OCC2CC2)cnc1-c1cc(F)cc(OCc2ccc(C(=O)NS(C)(=O)=O)cc2)c1
4,> 6.30,CS(=O)(=O)NC(=O)c1ccc(COc2cc(F)cc(-c3ncc(OCC4CC4)cn3)c2)cc1
5,> 6.30,CS(=O)(=O)NC(=O)c1ccc(COc2cccc(-c3ncc(OCC4CC4)cn3)c2)c(F)c1
6,> 6.30,CS(=O)(=O)NC(=O)c1ccc(COc2cccc(-c3cccc(OCC4CC4)n3)c2)c(F)c1
7,> 6.30,CS(=O)(=O)NC(=O)c1ccc(COc2cc(F)cc(-c3cncc(OCC4CC4)c3)c2)cc1
8,> 6.30,O=C(NS(=O)(=O)C1CC1)c1ccc(COc2cc(F)cc(-c3ccc(OCC4CC4)nc3)c2)c(F)c1
9,> 6.30,CS(=O)(=O)NC(=O)c1ccc(COc2cccc(-c3cnc(OCC4CCC4)c(CO)c3)c2)cc1
10,> 6.30,CS(=O)(=O)NC(=O)c1ccc(COc2cccc(-c3ccc(OCC4CC4)nc3)c2)nc1
11,> 6.30,CS(=O)(=O)NC(=O)c1cc(C2CC2)c(COc2cccc(-c3ccc(OCC4CC4)nc3)c2)cc1F
12,> 6.30,CS(=O)(=O)NC(=O)c1ccc(COc2cccc(-c3ccc(OCC4CC(F)(F)C4)nc3)c2)cc1
13,> 6.30,CC(C)S(=O)(=O)NC(=O)c1ccc(COc2cc(F)cc(-c3ccc(OCC4CC4)nc3)c2)cc1
14,> 6.30,CS(=O)(=O)NC(=O)c1ccc(COc2cc(-c3ccc(OCC4CC4)nc3)ccc2F)cc1
15,> 6.30,CS(=O)(=O)NC(=O)c1ccc(COc2cc(F)cc(-c3ccnc(OCC4CC4)c3)c2)cc1
16,> 6.30,CN(CCO)Cc1cc(OCC2CC2)cc(-c2cc(F)cc(OCc3ccc(C(=O)NS(C)(=O)=O)cc3F)c2)c1
17,> 6.30,CS(=O)(=O)NC(=O)c1ccc(COc2cc(-c3cncnc3)cc(-c3ccc(OCC4CC4)nc3)c2)cc1
18,> 6.30,CS(=O)(=O)NC(=O)c1ccc(COc2cc(F)cc(-c3ccc(OCC4CC4)nc3)c2)c(F)c1
19,> 6.30,CN(CC1CC1)c1cc(-c2cccc(OCc3ccc(C(=O)NS(C)(=O)=O)cc3F)c2)ccn1
20,> 6.30,O=C(NS(=O)(=O)C1CC1)c1ccc(COc2cccc(-c3ncc(OCC4CC4)cn3)c2)cc1
21,> 6.30,O=C(NS(=O)(=O)C1CC1)c1ccc(COc2ccc(F)c(-c3ccc(OCC4CC4)nc3)c2)cc1
22,> 6.30,Cc1c(-c2cc(OCc3ccc(C(=O)NS(C)(=O)=O)cc3F)ccc2F)ccnc1OCC1CC1
23,> 6.30,N#Cc1cc(C(=O)NS(=O)(=O)C2CC2)ccc1COc1cccc(-c2ccc(OCC3CC3)nc2)c1
24,> 6.30,CS(=O)(=O)NC(=O)c1ccc(COc2ccc(F)c(-c3ccc(OCC4CC4)nc3)c2)cc1
25,> 6.30,CS(=O)(=O)NC(=O)c1ccc(COc2cc(F)cc(-c3cnc(OCC4CC4)cn3)c2)cc1
26,> 6.30,CS(=O)(=O)NC(=O)c1ccc(COc2cccc(-c3ccc(OCC4CCC4)nc3CO)c2)cc1
27,> 6.30,CS(=O)(=O)NC(=O)c1cc(Cl)c(COc2cccc(-c3ccc(OCC4CC4)nc3)c2)cc1F

# Source: ChEMBL document CHEMBL5728485, “Biaryloxy derivatives as TTX-S blockers” (2021)
